# In patent US20090123389A1, “Methods for modulating Th17 cell development in the treatment and prevention of cellulite” (priority 2007, published 2009):
# How the values were obtained:
# TGFβ signaling = TGFβ signaling in T and B cells (Smad phosphorylation, lymphocyte responses to TGFβ); format: cell-based, mouse; settings: HF 10 nM (2.5-40 nM for Smad); SB-431542 10 μM
# Protocol: DMSO, 10 nM HF, 10 nM MAZ1310 or 10 μM SB-431542 was added as indicated at the time of activation and intracellular cytokine staining was performed on expanded T cells on day 5 as in FIG. 14B
# FIG. 15B is an illustration depicting the analysis of CD8^+ T cells that were activated in the presence or absence of TGFβ and cultured with DMSO, 10 nM HF, 10 nM MAZ1310 or 10 μM SB-431542. Expanded cells were restimulated on day 5 and intracellular staining was performed as above.
# FIG. 15C is an illustration depicting the analysis of CFSE-labeled B cells that were activated by LPS stimulation in the presence or absence of TGFβ plus DMSO, 10 nM HF, 10 nM MAZ1310 or 10 μM SB-431542. Intracellular IL-6 production in B cells re-stimulated with PMA plus ionomycin, or cell-surface IgA expression was determined 4 days after activation by FACS analyses.
# T cells were then activated in the presence or absence of 3 ng/ml TGFβ. Whole cell extracts were prepared after 1 hour of stimulation and western blot analyses were performed using the indicated antibodies.
# Western blotting: Whole cell lysates were generated from T cells activated for the indicated times. For STAT3 and Smad2/3 western blots cells were harvested, washed in PBS and lysed in 50 mM Tris, pH 7.4, 0.1% SDS, 1% Triton-×100, 140 mM NaCl, 1 mM EDTA, 1 mM EGTA supplemented with protease inhibitors tablets (Roche—Germany), 1 mM NaF and 1 mM Na3VO4. […]
# CD4+ CD25− T cells [1] = assay: Th17 differentiation / IL-17 expression of activated CD4+ CD25− T cells (TGFβ plus IL-6); format: cell-based, mouse; settings: for inhibition of IL-17 expression by HPLC-purified enantiomers: TGFβ plus IL-6, day 4, compared with racemic mix
# Protocol: Low doses of halofuginone (HF) were tested to determine the ability of HF to enhance Treg differentiation, while suppressing Th17 differentiation. Naïve CD4+ T cells (CD4+ CD25−) were isolated from the spleen and peripheral lymph nodes of C57B/6 mice. T cells were then activated using anti-CD3 (0.3 μg/ml) and anti-CD28 (0.5 μg/ml) antibodies either in media alone (row 1, 4), TGFβ alone (3 ng/ml—row 2, 5) or TGFβ (3 ng/ml) plus IL-6 (30 ng/ml) (row 3, 6). […] T cells were cultured for 3 days and CD25 and Foxp3 expression (Treg marker genes) was determine by FACS staining and flow cytometric analyses. Simultaneously, T cells were harvested and re-stimulated for 4 hours using phorbol myristic acetate (PMA; 10 nM), Ionomycin (1 μM) and cytokine secretion was prevented using brefeldin A (20 μg/ml). Following stimulation, the production of IL-17 and IFNγ were determined by intracellular staining and analyzed via flow cytometry.
# The dose-response of HF on CD4+ T cell proliferation, activation (i.e. CD25 upregulation) and differentiation to Th1, Th2 and Th17 lineages were evaluated. Purified murine naïve CD4+ CD25− T cells were activated using anti-CD3 (0.3 μg/ml) and anti-CD28 (0.5 μg/ml) antibodies and varying amounts of HF was added to each T cell culture condition (1.25 nM-40 nM). CD4+ T cell proliferation was monitored by CFSE dilution on day 3-post activation and CD25 expression was evaluated by FACS staining 2 days after activation. For T cell differentiation experiments, naïve T cells were activated as above in the presence of Th1 (IL-12 (20 ng/ml) plus anti-IL-4 (1.5 μg/ml)), Th2 (IL-4 (50 ng/ml) plus anti-IFNγ (0.5 mg/ml)) or Th17 (TGFβ (3 ng/ml) plus IL-6 (30 ng/ml)) polarizing conditions plus titrating amounts of HF (1.25 nM-40 nM) or MAZ1310 (40 nM). […] All cytokine expression was determined by intracellular staining following PMA+Ionomycin+Brefeldin A re-stimulation and all data was normalized to control (MAZ1310)-treated cells. […] Biol., vol. 80:1-8 (2006).
# (§1) Cytokines, antibodies and T cell culture: Purified CD4^+ CD25^− T cells were activated in vitro as previously described (I. M. Djuretic et al., Nat Immunol 8, 145 (2007)) using 0.3 μg/ml hamster anti-mouse CD3 (clone 145-2C11) (ATCC—Manassas, Va.) and 0.5 μg/ml hamster anti-mouse CD28 (BD Pharmingen, San Jose, Calif.). Activated cell cultures were differentiated using the following combinations of cytokines and antibodies: iTreg=recombinant human TGFβ1 (3 ng/ml; R&D systems, Minneapolis, Minn.), Th17=TGFβ1 (3 ng/ml) plus recombinant mouse IL-6 (30 ng/ml, R&D systems). Th1 and Th2 differentiation was performed as previously described. (I. M. Djuretic et al., Nat Immunol 8, 145 (2007)). Human IL-2 supernatant (National Cancer Institute) was used in culture at 0.01 U/ml and was added at 48 hours-post activation when T cells were split into tissue culture wells lacking CD3 and CD28 antibodies, with the exception of Th17 cultures that were maintained in the absence of IL-2. All reagents were added at the time of T cell activation and again at 48-hours post activation unless indicated otherwise. For some experiments, purified CD4^+ CD25^− T cells, CD8^+ T cells or B cells were labeled with 1 μM CFSE (Invitrogen) prior to activation in accordance with manufacturers instructions.
# MAZ1310 was generated by chemical derivatization of halofuginone and was used at equal concentrations as a negative control.
# CD4+ CD25− T cells [2] = assay: CD4+ T cell proliferation, CD25 upregulation, cytokine production, Th1/Th2/iTreg differentiation; format: cell-based, mouse; settings: titrating concentrations of tunicamycin
# Protocol: The dose-response of HF on CD4+ T cell proliferation, activation (i.e. CD25 upregulation) and differentiation to Th1, Th2 and Th17 lineages were evaluated. Purified murine naïve CD4+ CD25− T cells were activated using anti-CD3 (0.3 μg/ml) and anti-CD28 (0.5 μg/ml) antibodies and varying amounts of HF was added to each T cell culture condition (1.25 nM-40 nM). CD4+ T cell proliferation was monitored by CFSE dilution on day 3-post activation and CD25 expression was evaluated by FACS staining 2 days after activation. For T cell differentiation experiments, naïve T cells were activated as above in the presence of Th1 (IL-12 (20 ng/ml) plus anti-IL-4 (1.5 μg/ml)), Th2 (IL-4 (50 ng/ml) plus anti-IFNγ (0.5 mg/ml)) or Th17 (TGFβ (3 ng/ml) plus IL-6 (30 ng/ml)) polarizing conditions plus titrating amounts of HF (1.25 nM-40 nM) or MAZ1310 (40 nM). The percentage of Th17 cells, (IL-17^+ IFNγ^−) was evaluated on day 3 following activation, whereas the abundance of Th1 cells (IFNγ^+ IL-4) and Th2 cells (IL-4^+ IFNγ^−) was determined 5 days following activation. All cytokine expression was determined by intracellular staining following PMA+Ionomycin+Brefeldin A re-stimulation and all data was normalized to control (MAZ1310)-treated cells. […] Biol., vol. 80:1-8 (2006).
# as §1
# Detection of cytokine production: Cytokines secreted into media supernatant were measured using the mouse Th1/Th2 cytometric bead array (CBA, BD Pharmingen) in accordance with manufacturers instructions. Briefly, CD4^+ CD25^− T cells were activated in anti-CD3/anti-CD28-coated tissue culture wells and supernatants were collected at the indicated times. For detection of intracellular cytokines in murine cells, cultured T or B cells were stimulated with 10 nM PMA (Sigma) and […] (Sigma) for 4-5 hours in the presence of […] (Sigma). Stimulated cells were harvested, washed with PBS and fixed with PBS plus 4% paraformaldehyde at room temperature for 20 minutes. […]
# [3] = system: unfolded protein response (Xbp-1 splicing); assay: Xbp-1 splicing / ER stress response in activated T cells; settings: tunicamycin 1 μg/ml or 10 nM HF, 4 hours
compound,measurement,setting,value
NC(=O)c1ccc(-c2nc(-c3ccc4c(c3)OCO4)c(-c3ccccn3)[nH]2)cc1 [SB-431542],TGFβ-induced Smad phosphorylation and other lymphocyte responses to TGFβ,TGFβ signaling,abrogated all responses to TGFβ
CC(C)(C)OC(=O)N1CCC[C@H](O)[C@H]1CC(=O)Cn1cnc2cc(Br)c(Cl)cc2c1=O [MAZ1310],activity of HF derivative used as negative control,CD4+ CD25− T cells [1]; used at equal concentrations as HF,inactive
"O=C(CC1NCCCC1O)Cn1cnc2cc(Br)c(Cl)cc2c1=O (single isomer, unassigned) [D-enantiomer of HF]",inhibition of IL-17 expression by HPLC-purified enantiomers,CD4+ CD25− T cells [1],more potently than a racemic mix
"O=C(CC1NCCCC1O)Cn1cnc2cc(Br)c(Cl)cc2c1=O (single isomer, unassigned) [L-enantiomer]",inhibition of IL-17 expression by HPLC-purified enantiomers,CD4+ CD25− T cells [1],completely inactive
N[C@H](CO)Cc1c[nH]c2ccccc12 [L-tryptophanol],IL-17 production,"CD4+ CD25− T cells [1]; 0.2 mM L-tryptophanol, TGFβ plus IL-6",impaired IL-17 production
tunicamycin,IL-17 expression in T cells,CD4+ CD25− T cells [1]; titrating concentrations of tunicamycin,little influence
same,Th1 and Th2 differentiation,CD4+ CD25− T cells [2],preferentially impaired
same,Xbp-1 splicing,[3],together with Xbp-1 splicing
